In the assay the target is T1, GST-hCAR-LBD (Homo sapiens, UniProt Q14994).
T1 construct: GST-hCAR-LBD (5 nM), terbium-labeled anti-GST antibody (5 nM); purchased Invitrogen A15141
T1 sequence (Q14994 109-352 limits assumed): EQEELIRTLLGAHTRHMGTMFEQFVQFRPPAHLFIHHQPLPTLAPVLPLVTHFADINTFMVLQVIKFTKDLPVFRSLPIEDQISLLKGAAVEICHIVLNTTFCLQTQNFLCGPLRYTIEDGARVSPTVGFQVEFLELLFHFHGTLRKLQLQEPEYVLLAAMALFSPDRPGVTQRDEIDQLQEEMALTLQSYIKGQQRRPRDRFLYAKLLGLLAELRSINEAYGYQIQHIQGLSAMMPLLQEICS
Put plainly: LanthaScreen TR-FRET PGC1α coactivator recruitment assay. Format: biochemical. As to the method:
LanthaScreen^TM TR-FRET hCAR coactivator assays were performed according to manufacturer’s instructions (Invitrogen, A15141). Test compounds were incubated for 2 h at room temperature with GST-hCAR-LBD (5 nM), terbium-labeled anti-GST antibody (5 nM), and Fluorescein-PGC1α coactivator peptide (125 nM). Incubations were performed in four technical replicates. TR-FRET emissions were measured using a Tecan Infinite F200 Fluorescence Microplate Reader. Results were expressed as the ratio of fluorescence intensity at 520 nm (fluorescein emission excited by terbium emissions) and 495 nm (terbium emissions).
(In general: Time-resolved FRET reads energy transfer from a long-lived donor to a nearby acceptor.)

In the case of `CC(c1c[nH]c2ccccc12)c1c[nH]c2ccccc12` [DIE, 3,3’-diindolylethane], the PGC1α cofactor recruitment result was “does not”.
